Source: paper PMC5218480 (PLoS ONE, 2017)

System: MV-4-11 cells
Test: Gene expression microarray analysis (Affymetrix PrimeView) and GSEA
Format: cell-based, human
Set-up: RFU PODN (11730768_x_at) / Fold change /veh PODN (11730768_x_at) / RFU LINC00158 (11744669_a_at) / Fold change /veh LINC00158 (11744669_a_at) / RFU DUSP10 (11751237_a_at) / Fold change /veh DUSP10 (11751237_a_at) / RFU ID3 (11757404_x_at) / Fold change /veh ID3 (11757404_x_at) / RFU PLEKHG5 (11737974_s_at) / Fold change /veh PLEKHG5 (11737974_s_at) / RFU LRRC4B (11730491_at) / Fold change /veh LRRC4B (11730491_at) / RFU GIMAP4 (11747438_a_at) / Fold change /veh GIMAP4 (11747438_a_at) / RFU KRT8 (11758183_x_at) / Fold change /veh KRT8 (11758183_x_at) / RFU CNN1 (11734310_a_at) / Fold change /veh CNN1 (11734310_a_at) / RFU VPS37D (11726825_at) / Fold change /veh VPS37D (11726825_at) / RFU C10orf10 (11716522_x_at) / Fold change /veh C10orf10 (11716522_x_at) / RFU KIR2DL2 /// KIR2DL4 /// KIR2DL5A /// KIR2DL5B /// KIR2DS1 /// KIR2DS2 /// KIR2DS3 /// KIR2DS4 /// KIR3DL3 /// KIR3DL3 /// KIR3DS1 (11738374_at) / Fold change /veh KIR2DL2 /// KIR2DL4 /// KIR2DL5A /// KIR2DL5B /// KIR2DS1 /// KIR2DS2 /// KIR2DS3 /// KIR2DS4 /// KIR3DL3 /// KIR3DL3 /// KIR3DS1 (11738374_at) / RFU C1QL1 (11718748_at) / Fold change /veh C1QL1 (11718748_at) / RFU TMPRSS4 (11747572_a_at) / Fold change /veh TMPRSS4 (11747572_a_at) / RFU HAMP (11756126_x_at) / Fold change /veh HAMP (11756126_x_at) / RFU RNFT2 (11725882_a_at) / Fold change /veh RNFT2 (11725882_a_at) / RFU NR4A2 (11747474_a_at) / Fold change /veh NR4A2 (11747474_a_at) / RFU ABCC12 (11746883_a_at) / Fold change /veh ABCC12 (11746883_a_at) / RFU TMEM136 (11760407_x_at) / Fold change /veh TMEM136 (11760407_x_at) / RFU CLDN22 /// WWC2 (11732394_at) / Fold change /veh CLDN22 /// WWC2 (11732394_at) / RFU HLA-DPB1 (11760878_x_at) / Fold change /veh HLA-DPB1 (11760878_x_at) / RFU SPINT1 (11716480_a_at) / Fold change /veh SPINT1 (11716480_a_at) / RFU GAP43 (11754022_s_at) / Fold change /veh GAP43 (11754022_s_at) / RFU A4GNT (11735810_at) / Fold change /veh A4GNT (11735810_at) / RFU PRB3 (11715151_x_at) / Fold change /veh PRB3 (11715151_x_at) / RFU TUBB4B (11761932_at) / Fold change /veh TUBB4B (11761932_at) / RFU CAPN14 (11732068_a_at) / Fold change /veh CAPN14 (11732068_a_at) / RFU TMCC2 (11721928_a_at) / Fold change /veh TMCC2 (11721928_a_at) / RFU IRGQ (11745062_a_at) / Fold change /veh IRGQ (11745062_a_at) / RFU FAM174B (11720279_a_at) / Fold change /veh FAM174B (11720279_a_at) / RFU TMPRSS4 (11748680_a_at) / Fold change /veh TMPRSS4 (11748680_a_at) / RFU FAM212B (11763350_a_at) / Fold change /veh FAM212B (11763350_a_at) / RFU PLEKHG5 (11743358_a_at) / Fold change /veh PLEKHG5 (11743358_a_at) / RFU ZSCAN30 (11745921_a_at) / Fold change /veh ZSCAN30 (11745921_a_at) / RFU CMKLR1 (11741424_a_at) / Fold change /veh CMKLR1 (11741424_a_at) / RFU LOC101060620 /// MAPK8IP1 (11723275_at) / Fold change /veh LOC101060620 /// MAPK8IP1 (11723275_at) / RFU SPTSSB (11747773_x_at) / Fold change /veh SPTSSB (11747773_x_at) / RFU PRSS12 (11739890_at) / Fold change /veh PRSS12 (11739890_at) / RFU BIN1 (11741810_x_at) / Fold change /veh BIN1 (11741810_x_at) / RFU WNT11 (11732464_a_at) / Fold change /veh WNT11 (11732464_a_at) / RFU C10orf10 (11716521_a_at) / Fold change /veh C10orf10 (11716521_a_at) / RFU C5orf56 (11738089_at) / Fold change /veh C5orf56 (11738089_at) / RFU CYB561 (11721691_x_at) / Fold change /veh CYB561 (11721691_x_at) / RFU ANKRD19P (11752326_a_at) / Fold change /veh ANKRD19P (11752326_a_at) / RFU OR2T12 /// OR2T33 /// OR2T8 (11738714_s_at) / Fold change /veh OR2T12 /// OR2T33 /// OR2T8 (11738714_s_at) / RFU VCAN (11748164_a_at) / Fold change /veh VCAN (11748164_a_at) / RFU JSRP1 (11732532_at) / Fold change /veh JSRP1 (11732532_at) / RFU KRTAP10-11 (11738290_x_at) / Fold change /veh KRTAP10-11 (11738290_x_at) / RFU MYO3A (11730013_a_at) / Fold change /veh MYO3A (11730013_a_at) / RFU EBF3 (11725865_a_at) / Fold change /veh EBF3 (11725865_a_at) / RFU CAMK2N1 (11719241_x_at) / Fold change /veh CAMK2N1 (11719241_x_at) / RFU C5orf56 (11738088_a_at) / Fold change /veh C5orf56 (11738088_a_at) / RFU OLFML3 (11715873_a_at) / Fold change /veh OLFML3 (11715873_a_at) / RFU LOC100653217 /// NTM (11731650_a_at) / Fold change /veh LOC100653217 /// NTM (11731650_a_at) / RFU MAPK11 (11762145_a_at) / Fold change /veh MAPK11 (11762145_a_at) / RFU FIZ1 (11724087_x_at) / Fold change /veh FIZ1 (11724087_x_at) / RFU OASL (11726364_x_at) / Fold change /veh OASL (11726364_x_at) / RFU SOX15 (11748057_x_at) / Fold change /veh SOX15 (11748057_x_at) / RFU CD79A (11719716_a_at) / Fold change /veh CD79A (11719716_a_at) / RFU HIST1H1D (11736915_at) / Fold change /veh HIST1H1D (11736915_at) / RFU CASKIN2 (11723855_a_at) / Fold change /veh CASKIN2 (11723855_a_at) / RFU LOC730098 (11760151_x_at) / Fold change /veh LOC730098 (11760151_x_at) / RFU OR4N2 (11742367_at) / Fold change /veh OR4N2 (11742367_at) / RFU PRRT2 (11749266_a_at) / Fold change /veh PRRT2 (11749266_a_at) / RFU SNX32 (11753110_a_at) / Fold change /veh SNX32 (11753110_a_at) / RFU CDHR5 (11726645_a_at) / Fold change /veh CDHR5 (11726645_a_at) / RFU RCAN1 (11760418_a_at) / Fold change /veh RCAN1 (11760418_a_at) / RFU FAM167A (11723789_a_at) / Fold change /veh FAM167A (11723789_a_at) / RFU FAM26E (11764081_at) / Fold change /veh FAM26E (11764081_at) / RFU ISYNA1 (11749810_s_at) / Fold change /veh ISYNA1 (11749810_s_at) / RFU ACY1 (11761880_at) / Fold change /veh ACY1 (11761880_at) / RFU 11764098_at / Fold change /veh 11764098_at / RFU SAMD14 (11745864_x_at) / Fold change /veh SAMD14 (11745864_x_at) / RFU NPB (11741838_a_at) / Fold change /veh NPB (11741838_a_at) / RFU TMPRSS6 (11731388_a_at) / Fold change /veh TMPRSS6 (11731388_a_at) / RFU KRTAP10-2 (11738614_at) / Fold change /veh KRTAP10-2 (11738614_at) / RFU ARHGAP8 /// PRR5-ARHGAP8 (11727945_x_at) / Fold change /veh ARHGAP8 /// PRR5-ARHGAP8 (11727945_x_at) / RFU KRTAP5-7 /// NADSYN1 (11734609_at) / Fold change /veh KRTAP5-7 /// NADSYN1 (11734609_at) / RFU RASL12 (11751679_a_at) / Fold change /veh RASL12 (11751679_a_at) / RFU CDKN2B (11736163_a_at) / Fold change /veh CDKN2B (11736163_a_at) / RFU PRF1 (11729649_at) / Fold change /veh PRF1 (11729649_at) / RFU, ZNF638 /// ZNF638-IT1 / Fold change vs veh, ZNF638 /// ZNF638-IT1 / RFU, PANK3 / Fold change vs veh, PANK3 / RFU, SH3YL1 / Fold change vs veh, SH3YL1 / RFU, ZEB2 / Fold change vs veh, ZEB2 / RFU, NRIP1 / Fold change vs veh, NRIP1 / RFU, PTTG1IP / Fold change vs veh, PTTG1IP / RFU, CAPN2 / Fold change vs veh, CAPN2 / RFU, MED14 / Fold change vs veh, MED14 / RFU, SNORA58 / Fold change vs veh, SNORA58 / RFU, C1orf63 / Fold change vs veh, C1orf63 / RFU, LRRFIP1 / Fold change vs veh, LRRFIP1 / RFU, NDUFAF7 / Fold change vs veh, NDUFAF7 / RFU, SLC12A2 / Fold change vs veh, SLC12A2 / RFU, IBTK / Fold change vs veh, IBTK / RFU, ESF1 / Fold change vs veh, ESF1 / Fold change vs veh, TMEM50B / RFU, TAOK1 / Fold change vs veh, TAOK1 / RFU, ACBD3 / Fold change vs veh, ACBD3 / RFU, TMA16 / Fold change vs veh, TMA16 / RFU, RWDD3 / Fold change vs veh, RWDD3 / RFU, BCAT1 / Fold change vs veh, BCAT1 / RFU, EDEM3 / Fold change vs veh, EDEM3 / RFU, TMEM33 / Fold change vs veh, TMEM33 / RFU, WDR75 / Fold change vs veh, WDR75 / RFU, AHCTF1 / Fold change vs veh, AHCTF1 / RFU, TFRC / Fold change vs veh, TFRC / RFU, ZDHHC17 / Fold change vs veh, ZDHHC17 / RFU, NOM1 / Fold change vs veh, NOM1 / RFU, ARL8B / Fold change vs veh, ARL8B / RFU, ZBTB11 / Fold change vs veh, ZBTB11 / RFU, TAMM41 / Fold change vs veh, TAMM41 / RFU, KIAA1704 /// LOC100996395 / Fold change vs veh, KIAA1704 /// LOC100996395 / RFU, ING1 / Fold change vs veh, ING1 / RFU, TRMT61B / Fold change vs veh, TRMT61B / RFU, FUBP3 / Fold change vs veh, FUBP3 / RFU, TP53 / Fold change vs veh, TP53 / RFU, TNKS2 / Fold change vs veh, TNKS2 / RFU, ZFP14 / Fold change vs veh, ZFP14 / RFU, ACTR2 / Fold change vs veh, ACTR2 / RFU, PPP3R1 / Fold change vs veh, PPP3R1 / RFU, PIK3R1 / Fold change vs veh, PIK3R1 / RFU, HNRNPA1 / Fold change vs veh, HNRNPA1 / RFU, RNF170 / Fold change vs veh, RNF170 / RFU, ZNF28 / Fold change vs veh, ZNF28 / RFU, RNGTT / Fold change vs veh, RNGTT / RFU, OGT / Fold change vs veh, OGT / RFU, BRD1 / Fold change vs veh, BRD1 / RFU, MARS / Fold change vs veh, MARS / RFU, ZNF655 / Fold change vs veh, ZNF655 / RFU, FAHD1 / Fold change vs veh, FAHD1 / RFU, BDP1 / Fold change vs veh, BDP1 / RFU, LRRCC1 / Fold change vs veh, LRRCC1 / RFU, ARID1A / Fold change vs veh, ARID1A / RFU, ZNF146 / Fold change vs veh, ZNF146 / RFU, ZNF330 / Fold change vs veh, ZNF330 / RFU, GPN3 / Fold change vs veh, GPN3 / RFU, C9orf123 / Fold change vs veh, C9orf123 / RFU, N4BP2L2 / Fold change vs veh, N4BP2L2 / RFU, ARFIP1 / Fold change vs veh, ARFIP1 / RFU, FAM179B / Fold change vs veh, FAM179B / RFU, BCL10 / Fold change vs veh, BCL10 / RFU, UHRF1BP1L / Fold change vs veh, UHRF1BP1L / RFU, BET1 / Fold change vs veh, BET1 / RFU, CNOT2 / Fold change vs veh, CNOT2 / RFU, ZNF268 / Fold change vs veh, ZNF268 / Fold change vs veh, ZNF507 / RFU, DGCR2 / Fold change vs veh, DGCR2 / RFU, WDSUB1 / Fold change vs veh, WDSUB1 / Fold change vs veh, HSP90B1 /// MIR3652 / RFU, ADSS / Fold change vs veh, ADSS / RFU, GK / Fold change vs veh, GK / RFU, ZNF148 / Fold change vs veh, ZNF148 / RFU, TAF9 / Fold change vs veh, TAF9 / RFU, SLC1A5 / Fold change vs veh, SLC1A5 / RFU, SLMO2 / Fold change vs veh, SLMO2 / RFU, ABCC4 / Fold change vs veh, ABCC4 / RFU, LOC101060439 /// RAP1B / Fold change vs veh, LOC101060439 /// RAP1B / RFU, RFX7 / Fold change vs veh, RFX7 / RFU, GTPBP10 / Fold change vs veh, GTPBP10 / RFU, CNEP1R1 / Fold change vs veh, CNEP1R1 / RFU, BIVM-ERCC5 /// ERCC5 / Fold change vs veh, BIVM-ERCC5 /// ERCC5 / RFU, ILF3 / Fold change vs veh, ILF3 / RFU 11762660_at / Fold change /veh 11762660_at / RFU VCAN (11757783_s_at) / Fold change /veh VCAN (11757783_s_at) / RFU DDX43 (11728927_at) / Fold change /veh DDX43 (11728927_at) / RFU KRT8 (11758188_x_at) / Fold change /veh KRT8 (11758188_x_at) / RFU NKD1 (11759106_at) / Fold change /veh NKD1 (11759106_at) / RFU SRD5A1 (11742802_a_at) / Fold change /veh SRD5A1 (11742802_a_at) / RFU TPSAB1 /// TPSB2 (11721975_s_at) / Fold change /veh TPSAB1 /// TPSB2 (11721975_s_at) / RFU GSTM3 (11746129_a_at) / Fold change /veh GSTM3 (11746129_a_at) / RFU IL23R (11737362_x_at) / Fold change /veh IL23R (11737362_x_at) / RFU TMEM51 (11727254_a_at) / Fold change /veh TMEM51 (11727254_a_at) / RFU PIWIL2 (11732686_x_at) / Fold change /veh PIWIL2 (11732686_x_at) / RFU ORM1 (11744905_x_at) / Fold change /veh ORM1 (11744905_x_at) / RFU CCDC152 (11743942_at) / Fold change /veh CCDC152 (11743942_at) / RFU ECM1 (11717891_a_at) / Fold change /veh ECM1 (11717891_a_at) / RFU IL23R (11748794_a_at) / Fold change /veh IL23R (11748794_a_at) / RFU TNFAIP8L3 (11732012_x_at) / Fold change /veh TNFAIP8L3 (11732012_x_at) / RFU MBOAT4 (11741988_at) / Fold change /veh MBOAT4 (11741988_at) / RFU 11764193_at / Fold change /veh 11764193_at / RFU TMEM53 (11763286_at) / Fold change /veh TMEM53 (11763286_at) / RFU MAGEB2 (11727129_at) / Fold change /veh MAGEB2 (11727129_at) / RFU TMEM200A (11744735_a_at) / Fold change /veh TMEM200A (11744735_a_at) / RFU CCDC152 (11751479_a_at) / Fold change /veh CCDC152 (11751479_a_at) / RFU FAM211A (11726209_a_at) / Fold change /veh FAM211A (11726209_a_at) / RFU RGS16 (11746705_a_at) / Fold change /veh RGS16 (11746705_a_at) / RFU VCAN (11755009_s_at) / Fold change /veh VCAN (11755009_s_at) / RFU RHOB (11743442_s_at) / Fold change /veh RHOB (11743442_s_at) / RFU RGS16 (11720943_a_at) / Fold change /veh RGS16 (11720943_a_at) / RFU RGS16 (11720944_at) / Fold change /veh RGS16 (11720944_at) / RFU, VPS4B / Fold change vs veh, VPS4B / RFU, CREB1 / Fold change vs veh, CREB1 / RFU, DNAJC13 / Fold change vs veh, DNAJC13 / RFU, GNAQ / Fold change vs veh, GNAQ / RFU, CDK5R1 / Fold change vs veh, CDK5R1 / RFU, ZRANB3 / Fold change vs veh, ZRANB3 / RFU, CUL4A / Fold change vs veh, CUL4A / RFU, CCNY / Fold change vs veh, CCNY / RFU, UFL1 / Fold change vs veh, UFL1 / RFU, COG3 / Fold change vs veh, COG3 / RFU, DIAPH2 / Fold change vs veh, DIAPH2 / RFU, SKA2 / Fold change vs veh, SKA2 / RFU, AFF3 / Fold change vs veh, AFF3 / RFU, LMF1 / Fold change vs veh, LMF1 / RFU, IPO11 / Fold change vs veh, IPO11 / RFU, DFFB / Fold change vs veh, DFFB / RFU, FOXP1 / Fold change vs veh, FOXP1 / RFU, CARD8 / Fold change vs veh, CARD8 / RFU, STRN3 / Fold change vs veh, STRN3 / RFU, ADK / Fold change vs veh, ADK / RFU, RASSF2 / Fold change vs veh, RASSF2 / RFU, WIPF1 / Fold change vs veh, WIPF1 / RFU, LARP1B / Fold change vs veh, LARP1B / RFU, RASA1 / Fold change vs veh, RASA1 / RFU, RB1 / Fold change vs veh, RB1 / RFU, PPFIA1 / Fold change vs veh, PPFIA1 / RFU, MAT2A / Fold change vs veh, MAT2A / RFU, CCT5 / Fold change vs veh, CCT5 / RFU, WDR92 / Fold change vs veh, WDR92 / RFU, CUX1 / Fold change vs veh, CUX1 / RFU, TTC7A / Fold change vs veh, TTC7A / RFU, TMEM135 / Fold change vs veh, TMEM135 / RFU, DEPTOR / Fold change vs veh, DEPTOR / RFU, CPM / Fold change vs veh, CPM / RFU, DNAJB6 / Fold change vs veh, DNAJB6 / RFU, CACNA2D3 / Fold change vs veh, CACNA2D3 / RFU, DTX4 / Fold change vs veh, DTX4 / RFU, TFCP2 / Fold change vs veh, TFCP2 / RFU, GMCL1 /// GMCL1P1 / Fold change vs veh, GMCL1 /// GMCL1P1 / RFU, AEBP2 / Fold change vs veh, AEBP2 / RFU, SNHG1 /// SNORD22 /// SNORD25 /// SNORD26 /// SNORD27 /// SNORD28 /// SNORD29 /// SNORD31 / Fold change vs veh, SNHG1 /// SNORD22 /// SNORD25 /// SNORD26 /// SNORD27 /// SNORD28 /// SNORD29 /// SNORD31 / Fold change (Aza/veh), C12orf56 (ProbeSet 11735607_a_at) / Fold change (ACY-1035/veh), C12orf56 (ProbeSet 11735607_a_at) / Fold change (Aza/veh), FGFR1OP (ProbeSet 11751329_s_at) / Fold change (ACY-1035/veh), FGFR1OP (ProbeSet 11751329_s_at) / Fold change (Aza/veh), VPS36 (ProbeSet 11739960_a_at) / Fold change (ACY-1035/veh), VPS36 (ProbeSet 11739960_a_at) / RFU SYPL1 (11715823_x_at) / Fold change /veh SYPL1 (11715823_x_at) / RFU IGFBP7 (11715501_s_at) / Fold change /veh IGFBP7 (11715501_s_at) / RFU REEP3 (11722064_at) / Fold change /veh REEP3 (11722064_at) / RFU IGLL1 (11728026_x_at) / Fold change /veh IGLL1 (11728026_x_at): dose or concentration left out as unconfirmed
Settings: ProbeSet 11717308_a_at; LIST B

## Nc1ccc(-c2cccs2)cc1NC(=O)c1ccc2c(c1)cc(C1CC1)n2CCN1CCOCC1 [ACY-1035]
  Fold change vs veh, WDR75: 0.92
